Results taken from article PMC2118486 (The Journal of Experimental Medicine, 2007).

Tests used:
[1] = mouse, 37°C, up to 60 min
[2] = test system: purified peritoneal mast cells (Mc-cpa); type: in vitro ADME, mouse; settings: Mc-cpaY356L,E378A mast cells, 2 μM ionomycin, 37°C, 60 min; reduced (DTT/IAA) sample; MALDI-TOF

| Substance | not cleaved [1] | internal cleavage of S6b [2] |
| --- | --- | --- |
| Cys-Ser-Cys-Ser-Ser-Leu-Met-Asp-Lys-Glu-Cys-Val-Tyr-Phe-Cys-His-Leu-Asp-Ile-Ile-Trp | ET-1 (1–21) was also maintained | – |
| sarafotoxin 6b [S6b] | – | reaction products consistent with the masses of 1–13 and 1–14 fragments of S6b |
